Here are results for one compound from patent US20140309257A1, “TOPOISOMERASE INHIBITORS AND METHODS OF MAKING AND USE AS THERAPEUTIC AGENTS” (THE REGENTS OF THE UNIVERSITY OF COLORADO, a body corporate, priority 2011, published 2014).

The Ki is a dissociation constant, usually derived from enzyme kinetics or from competition with a known ligand. The IC50 is the concentration that inhibits the measured activity by half.

The test system of one series is xenograft tumors. The note with it: in mice; compared with etoposide; cited from earlier work.
Series [1] has as its system triple negative MDA-MB-231 breast carcinoma spheroids. Kind of series: 3D-spheroid invasion. The series is classed as cell-based, human. Particulars: through reversion of EMT. From the text: A 3D-spheroid culture formulation was developed that allows for the culture of single uniform spheroids with variety of cell types in 96-well plates that can be used with a variety of epithelial-mesenchymal transition (EMT) biomarker reporters (see, U.S. Patent Publication No. 2011/0143960 A1; Li Q, Chen C, Kapadia A, Zhou Q, Harper M K, et al. (2011), 3D Models of epithelial-mesenchymal transition in breast cancer metastasis: high-throughput screening assay development, validation, and pilot screen. J Biomol Screen 16: 141-154). The 3D-spheroid based assays with neo (control) and derivatives were used to test their ability to revert EMT or induce cytotoxicity against human carcinomas resistant to clinically used TopoIIα drugs, including: MDA-MB-231, MCF7/AdrVP breast cancer, and SW480, Colo201, and DLD-1 (APC mutant) colon cancer cells. This 3D-model utilizes a luciferase reporter of vimentin, a key mesenchymal biomarker expressed in these cells. Vimentin expression is measured using a live spheroid luciferin substrate (caged luciferin) followed by a multiplex assay measuring spheroid viability. […]
Active compounds are then tested for their ability to inhibit spheroid invasion, as follows: Spheroid invasion is measured using 15 spheroids per sample group. […] Invading cells will be measured using an OPERETTA™ high content imaging system.

For a further series, the target named is TopoIIα (Homo sapiens, UniProt P11388). Kind of series: In vitro ATP hydrolysis assay (malachite green). The series is classed as biochemical. The method, then: Efficacy of the ATP-competitive inhibition of TopoIIα inhibitors of the invention are tested in vitro using an ATP hydrolysis assay that quantifies inorganic phosphate through the formation of a high molar absorptivity complex with malachite green and molybdate, adapted for use in 384-well plates, with a total reaction volume of 15 μL. This assay was first utilized to determine the Km of TopoIIα for its natural substrate, ATP, using ATP concentrations ranging from 62.5-1600 μM. To measure the apparent Km, the same reactions were repeated in the presence of 2, 5, or 10 μM neo. Absorbance at 620 nm was measured using a microtiter plate reader. To determine the Ki the same method was used with the following modifications: inhibitors (0.1-10 μM) in reaction buffer (without DNA and DTT) are added to the complete reaction buffer and preincubated for 10 min at 37° C. Reactions were initiated by the addition of 600 μM ATP and incubated for 30 min at 37° C. The IC50 value was determined and the Ki was calculated using the Cheng-Prusoff equation. Experiments were repeated in triplicate and GraphPad Prism software was used to perform non-linear fits (method of least squares) to the Michaelis-Menten kinetics (Km and Vmax) or the dose-response inhibition model (IC50 values).

A further series deals with Pgp (Homo sapiens, UniProt P08183). The note with it: cited from earlier work.
In another series the test system is DNA. The note with it: below 100 μM concentrations; cited from earlier work.
The subject of series [2] is human colon tumor (HCT-116). Particulars: compared with 9-aminocamptothecin; cited from earlier work.

Chain of TopoIIα (P11388 whole entry): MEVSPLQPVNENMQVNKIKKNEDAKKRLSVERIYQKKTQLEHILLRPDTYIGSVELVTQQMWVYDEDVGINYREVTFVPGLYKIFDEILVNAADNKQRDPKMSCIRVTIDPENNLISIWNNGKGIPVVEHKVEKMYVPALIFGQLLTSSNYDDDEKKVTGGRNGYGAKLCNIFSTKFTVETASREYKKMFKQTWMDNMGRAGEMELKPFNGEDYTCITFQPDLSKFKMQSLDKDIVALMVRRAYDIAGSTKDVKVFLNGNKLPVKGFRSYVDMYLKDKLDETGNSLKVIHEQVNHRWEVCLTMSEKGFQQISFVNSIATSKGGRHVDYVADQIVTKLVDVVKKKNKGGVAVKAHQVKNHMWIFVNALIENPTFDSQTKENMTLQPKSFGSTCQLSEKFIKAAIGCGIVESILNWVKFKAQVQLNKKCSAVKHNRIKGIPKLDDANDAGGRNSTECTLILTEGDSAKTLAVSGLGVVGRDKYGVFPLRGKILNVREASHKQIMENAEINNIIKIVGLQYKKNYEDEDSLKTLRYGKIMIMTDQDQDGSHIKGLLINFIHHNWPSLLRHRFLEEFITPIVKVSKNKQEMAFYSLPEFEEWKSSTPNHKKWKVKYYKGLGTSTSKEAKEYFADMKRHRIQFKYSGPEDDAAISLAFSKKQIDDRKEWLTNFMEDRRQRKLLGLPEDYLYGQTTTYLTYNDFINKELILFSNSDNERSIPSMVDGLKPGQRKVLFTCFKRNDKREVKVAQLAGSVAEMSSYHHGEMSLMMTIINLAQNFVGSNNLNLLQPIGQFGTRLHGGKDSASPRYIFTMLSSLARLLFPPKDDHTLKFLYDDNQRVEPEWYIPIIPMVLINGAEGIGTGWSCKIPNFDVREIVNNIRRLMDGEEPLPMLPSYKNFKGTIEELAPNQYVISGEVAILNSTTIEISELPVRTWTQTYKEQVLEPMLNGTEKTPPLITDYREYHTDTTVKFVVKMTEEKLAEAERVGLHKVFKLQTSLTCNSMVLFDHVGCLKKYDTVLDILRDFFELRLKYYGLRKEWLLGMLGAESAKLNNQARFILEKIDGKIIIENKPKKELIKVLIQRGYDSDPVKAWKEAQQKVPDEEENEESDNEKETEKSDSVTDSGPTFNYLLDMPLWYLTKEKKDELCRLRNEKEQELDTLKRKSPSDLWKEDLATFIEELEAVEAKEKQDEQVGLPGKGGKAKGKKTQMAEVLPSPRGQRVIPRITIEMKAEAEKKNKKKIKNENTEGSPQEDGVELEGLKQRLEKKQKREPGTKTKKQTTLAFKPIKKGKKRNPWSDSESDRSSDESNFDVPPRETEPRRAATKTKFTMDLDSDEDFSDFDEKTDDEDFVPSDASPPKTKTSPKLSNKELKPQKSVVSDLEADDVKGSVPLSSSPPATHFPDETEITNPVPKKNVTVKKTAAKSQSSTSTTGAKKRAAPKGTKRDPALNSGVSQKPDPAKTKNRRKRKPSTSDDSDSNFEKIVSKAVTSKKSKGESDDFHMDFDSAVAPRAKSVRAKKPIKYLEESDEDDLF
Chain of Pgp (P08183 whole entry): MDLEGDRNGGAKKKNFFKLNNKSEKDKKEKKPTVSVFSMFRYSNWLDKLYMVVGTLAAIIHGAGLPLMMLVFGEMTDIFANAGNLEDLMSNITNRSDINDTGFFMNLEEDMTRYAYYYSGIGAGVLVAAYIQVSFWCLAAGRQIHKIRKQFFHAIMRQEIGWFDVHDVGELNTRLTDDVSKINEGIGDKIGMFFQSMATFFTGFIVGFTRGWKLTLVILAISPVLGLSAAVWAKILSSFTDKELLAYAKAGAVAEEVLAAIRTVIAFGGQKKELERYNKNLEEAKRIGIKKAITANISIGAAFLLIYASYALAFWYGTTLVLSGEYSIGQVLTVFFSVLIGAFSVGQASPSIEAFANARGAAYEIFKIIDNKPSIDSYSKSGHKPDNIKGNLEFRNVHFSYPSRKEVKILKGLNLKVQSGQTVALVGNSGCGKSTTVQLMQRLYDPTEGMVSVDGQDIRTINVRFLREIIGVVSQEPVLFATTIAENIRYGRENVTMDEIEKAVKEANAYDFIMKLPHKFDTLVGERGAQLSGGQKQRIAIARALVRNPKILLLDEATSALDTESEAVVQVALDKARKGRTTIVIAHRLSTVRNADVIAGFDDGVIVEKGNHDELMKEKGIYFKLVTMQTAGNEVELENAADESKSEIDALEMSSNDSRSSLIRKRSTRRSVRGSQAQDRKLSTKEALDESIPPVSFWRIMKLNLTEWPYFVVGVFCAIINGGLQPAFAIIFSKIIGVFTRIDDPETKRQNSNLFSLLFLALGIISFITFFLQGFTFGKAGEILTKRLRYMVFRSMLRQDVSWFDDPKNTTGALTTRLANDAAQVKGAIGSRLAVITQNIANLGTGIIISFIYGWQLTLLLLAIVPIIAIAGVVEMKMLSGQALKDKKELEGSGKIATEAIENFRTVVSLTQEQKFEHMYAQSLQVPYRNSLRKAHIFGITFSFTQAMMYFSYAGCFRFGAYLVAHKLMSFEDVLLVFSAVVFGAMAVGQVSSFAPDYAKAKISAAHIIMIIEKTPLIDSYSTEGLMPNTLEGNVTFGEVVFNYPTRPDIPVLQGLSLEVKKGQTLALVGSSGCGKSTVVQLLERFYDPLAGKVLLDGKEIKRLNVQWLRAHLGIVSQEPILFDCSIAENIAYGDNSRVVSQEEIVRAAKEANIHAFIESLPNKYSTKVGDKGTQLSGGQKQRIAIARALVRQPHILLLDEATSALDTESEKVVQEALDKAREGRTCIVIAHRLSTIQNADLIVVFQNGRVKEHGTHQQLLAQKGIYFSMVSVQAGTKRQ

Take `Cn1ccc2c(c1=O)C(=O)c1nccc3c1c-2nc1ccccc13` [neo, Neoamphimedine]: the “inhibition of the growth of xenograft tumors” value with xenograft tumors was “as effective as etoposide”. The “inhibition of invasive potential of spheroids” value in series [1] is “significantly inhibits the invasive potential”. Besides, the Ki on TopoIIα (corresponding to the IC50, calculated using the Cheng-Prusoff equation, read-out: Ki, inhibition of TopoIIα ATPase function) is 800 ± 300 nM. Further, at TopoIIα (over a concentration range from 0-10 μM), the “increase of the apparent Km of TopoIIα for ATP” value is reported as “approximately 2 fold”. Besides, on TopoIIα (read-out: IC50, inhibition of TopoIIα ATPase function), the IC50 turned out to be 2000 nM. In addition, the “substrate for Pgp-dependent MDR” value at Pgp is on record as “not a substrate”. For the same compound, in the series with DNA, the “stabilization of the cleaved complex, DNA strand breaks or intercalation of DNA” value is “without stabilizing the cleaved complex, or causing significant DNA strand breaks or intercalation of DNA”. Also, the “efficacy in HCT-116 xenografts” value in series [2] is reported as “as efficacious as”.
